Test results reported in patent US20260216238A1, “TETRATHIOMOLYBDIC ACID FOR USE IN TREATING COPPER METABOLISM-ASSOCIATED DISEASES OR DISORDERS (WILSON DISEASE)” (Alexion Pharmaceuticals, Inc., priority 2023, published 2026).

System: patients with Wilson disease (WD)
Test: Clinical Global Impression-Improvement scale (CGI-I)
Assay type: in vivo, human
Conditions: for Transformed CGI-I (−3 to 3), LSM / Transformed CGI-I (−3 to 3), Mean: Study 301 TTM long term set
Excerpt: Clinical Global Impression-[…]: The Clinical Global Impression (CGI) rating scales were commonly used measures of symptom severity, treatment response, and the efficacy of treatments in treatment studies of adult and pediatric patients with mental disorders.
While transformed CGI-I (TCGI-I) assesses how the WD patients' condition changed compared to baseline, CGI-I may indicate the overall clinical improvement of the patients in the study compared to baseline for each treatment arm.

[1] = Subpopulation E, Week 48, TTM N=78, SoC N=39

## bis-choline tetrathiomolybdate [TTM]
Study 301 Full Analysis Set
  T-CGI-I (−3 to 3, −3 is very much improved) at 48 weeks, LSM: −0.7
  T-CGI-I (−3 to 3, −3 is very much improved) at 48 weeks, Mean: −0.7
Subpopulation E, Week 48
  Transformed Global Improvement (CGI-I), Change from Baseline, LSM: −0.7
  Transformed Global Improvement (CGI-I), Change from Baseline, LSM Diff (TTM vs SoC): −0.5
[1]
  Transformed Global Improvement (CGI-I), Change from Baseline, Max: 1
  Transformed Global Improvement (CGI-I), Change from Baseline, Mean: −0.7
  Transformed Global Improvement (CGI-I), Change from Baseline, Median: 0.0
  Transformed Global Improvement (CGI-I), Change from Baseline, Min: −3,
  Transformed Global Improvement (CGI-I), Change from Baseline, Q1: −1.0,
  Transformed Global Improvement (CGI-I), Change from Baseline, Q3: 0.0
TTM vs SoC, P 0.0316
  T-CGI-I, Difference at 48 weeks, LSM: −0.3
W0-W48, cohort 1 incomplete response or intolerant, p=0.0051
  CGI-I, LSM difference (SE) TTM versus SoC: −0.4 (0.15)
Week 24
  Transformed CGI-I (−3 to 3), LSM: −0.6
  Transformed CGI-I (−3 to 3), Mean: −0.5
Week 48
  Transformed CGI-I (−3 to 3), LSM: −0.8
  Transformed CGI-I (−3 to 3), Mean: −0.7
Week 72
  Transformed CGI-I (−3 to 3), LSM: −0.6
  Transformed CGI-I (−3 to 3), Mean: −0.5
Week 96
  Transformed CGI-I (−3 to 3), LSM: −0.6
  Transformed CGI-I (−3 to 3), Mean: −0.5
Week 120
  Transformed CGI-I (−3 to 3), LSM: −0.7
  Transformed CGI-I (−3 to 3), Mean: −0.7
Week 144
  Transformed CGI-I (−3 to 3), LSM: −0.8
  Transformed CGI-I (−3 to 3), Mean: −0.7
